Tests used:
[1] = molecular target: T1, Muscarinic acetylcholine receptor M2 (Homo sapiens, UniProt P08172); test: Tested in vitro for the binding affinity against muscarinic receptor subtype 2 (M2)
T1 sequence (P08172 whole entry): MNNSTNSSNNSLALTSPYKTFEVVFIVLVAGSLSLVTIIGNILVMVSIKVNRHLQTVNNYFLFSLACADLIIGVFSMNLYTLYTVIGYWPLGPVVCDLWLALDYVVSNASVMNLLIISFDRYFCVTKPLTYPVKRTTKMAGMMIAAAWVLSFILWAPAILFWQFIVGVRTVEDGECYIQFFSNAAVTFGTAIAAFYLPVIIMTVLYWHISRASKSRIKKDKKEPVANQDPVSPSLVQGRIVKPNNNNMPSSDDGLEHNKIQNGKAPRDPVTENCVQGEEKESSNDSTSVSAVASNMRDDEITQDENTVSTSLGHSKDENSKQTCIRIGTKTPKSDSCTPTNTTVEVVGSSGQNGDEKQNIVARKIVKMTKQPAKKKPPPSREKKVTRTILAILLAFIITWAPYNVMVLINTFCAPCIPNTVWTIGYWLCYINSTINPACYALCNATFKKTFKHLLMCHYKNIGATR

[2] = molecular target: T2, Muscarinic acetylcholine receptor M1 (Homo sapiens, UniProt P11229); test: Tested in vitro for the binding affinity against muscarinic receptor subtype 1 (M1)
T2 sequence (P11229 whole entry): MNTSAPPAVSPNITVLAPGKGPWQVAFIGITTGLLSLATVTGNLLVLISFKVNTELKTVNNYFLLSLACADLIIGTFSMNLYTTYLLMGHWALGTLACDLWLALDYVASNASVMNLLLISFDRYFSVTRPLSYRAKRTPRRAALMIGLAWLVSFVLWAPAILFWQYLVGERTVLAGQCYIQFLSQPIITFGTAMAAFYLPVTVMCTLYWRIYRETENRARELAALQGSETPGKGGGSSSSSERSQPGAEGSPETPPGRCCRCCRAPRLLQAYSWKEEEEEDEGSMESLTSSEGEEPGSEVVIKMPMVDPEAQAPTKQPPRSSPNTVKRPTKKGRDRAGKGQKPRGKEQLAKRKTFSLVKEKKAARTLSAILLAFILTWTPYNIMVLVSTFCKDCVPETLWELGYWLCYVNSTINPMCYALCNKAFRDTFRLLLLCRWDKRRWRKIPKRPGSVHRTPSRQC

[3] = molecular target: Muscarinic acetylcholine receptor M3 (Homo sapiens, UniProt P20309); test: Tested in vitro for the binding affinity against muscarinic receptor subtype 3 (M3)
Sequence of Muscarinic acetylcholine receptor M3 (P20309 whole entry): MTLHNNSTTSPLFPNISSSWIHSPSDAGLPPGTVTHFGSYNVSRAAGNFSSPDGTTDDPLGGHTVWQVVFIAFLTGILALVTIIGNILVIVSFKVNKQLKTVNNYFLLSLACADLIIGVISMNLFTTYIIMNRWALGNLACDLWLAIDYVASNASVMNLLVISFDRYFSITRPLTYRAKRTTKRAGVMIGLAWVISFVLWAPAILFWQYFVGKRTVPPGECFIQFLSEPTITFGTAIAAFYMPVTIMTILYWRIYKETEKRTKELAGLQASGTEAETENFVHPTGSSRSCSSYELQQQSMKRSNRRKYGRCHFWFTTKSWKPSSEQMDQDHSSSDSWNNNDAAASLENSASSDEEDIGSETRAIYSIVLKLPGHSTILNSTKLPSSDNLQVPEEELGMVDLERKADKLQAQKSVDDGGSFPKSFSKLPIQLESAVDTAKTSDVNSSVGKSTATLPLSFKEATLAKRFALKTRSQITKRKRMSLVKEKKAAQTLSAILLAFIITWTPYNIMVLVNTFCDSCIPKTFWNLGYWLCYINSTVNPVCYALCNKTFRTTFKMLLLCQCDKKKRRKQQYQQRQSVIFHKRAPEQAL

SMILES	Ki [1]	Ki [2]	Ki [3]
CCN(CCCCC1CCN(CC(=O)N2c3ccccc3NC(=O)c3ccccc32)CC1)C(=O)c1cccc(I)c1	111 nM	67.1 nM	33.5 nM
CCNCCCCC1CCN(CC(=O)N2c3ccccc3NC(=O)c3ccccc32)CC1	4.49 nM	6.98 nM	–
CCOC(=O)N(CC)CCCCC1CCN(CC(=O)N2c3ccccc3NC(=O)c3ccccc32)CC1	37.1 nM	70 nM	39.2 nM
CCN(CCCCC1CCN(CC(=O)N2c3ccccc3C(=O)N(C(=O)c3ccc(F)cc3)c3ccccc32)CC1)C(=O)c1ccc(F)cc1	46.9 nM	129 nM	79.1 nM
CCN(CCCCC1CCN(CC(=O)N2c3ccccc3NC(=O)c3ccccc32)CC1)C(=O)c1ccc(F)cc1	32 nM	59.4 nM	46.4 nM

— ChEMBL document CHEMBL1129888, “Synthesis and evaluation of halogenated dibenzodiazepines as muscarinic receptor ligands” (Bioorg Med Chem Lett, 1997)
